The record followed here is patent publication US7473790B2 (Pfizer Inc., priority 2003, dated 2009).

For this assay, the target named is T1, HCV polymerase (Hepatitis C virus genotype 1b, UniProt P26663).
T1 construct: 2.5 pmoles (0.15 μg) HCV polymerase protein in a final volume of 75 μL
T1 sequence (P26663 2420-3010): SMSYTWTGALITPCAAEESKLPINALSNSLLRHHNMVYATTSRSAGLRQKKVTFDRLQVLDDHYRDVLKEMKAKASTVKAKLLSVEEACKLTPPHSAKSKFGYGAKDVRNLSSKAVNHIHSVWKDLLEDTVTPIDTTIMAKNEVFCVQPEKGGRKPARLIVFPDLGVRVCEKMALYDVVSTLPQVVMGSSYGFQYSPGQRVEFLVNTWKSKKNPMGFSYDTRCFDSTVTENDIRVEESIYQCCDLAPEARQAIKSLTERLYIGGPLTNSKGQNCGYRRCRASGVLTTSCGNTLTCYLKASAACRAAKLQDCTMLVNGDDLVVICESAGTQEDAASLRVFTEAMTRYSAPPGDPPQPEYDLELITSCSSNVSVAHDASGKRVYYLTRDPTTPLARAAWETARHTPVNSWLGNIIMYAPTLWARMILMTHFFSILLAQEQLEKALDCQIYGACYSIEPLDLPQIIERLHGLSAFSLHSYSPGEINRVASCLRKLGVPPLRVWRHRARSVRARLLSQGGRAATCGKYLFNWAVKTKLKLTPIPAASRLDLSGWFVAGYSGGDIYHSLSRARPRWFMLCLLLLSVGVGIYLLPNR
The assay can be described thus: HCV polymerase primer/template-directed transcription assay (32P-GTP incorporation, filter binding). As to conditions: recombinant HCV polymerase; 30 minutes at 30° C.; concentration giving 50% inhibition of polymerase-directed transcription; read-out: IC50. Type of assay: biochemical. The method, then: The compounds described herein were tested for activity with HCV polymerase. Recombinant HCV polymerase was tested for its ability to perform primer/template-directed transcription in assays that contained 30 mM tris-HCl pH 7.2, 10 mM MgCl2, 20 mM NaCl, 1 mM Dithiothreitol (DTT), 0.05% Tween-20, 1% glycerol, 5 pmoles biotin-dG12 (primer), 0.5 pmoles poly(rC)300 (template), 1 μM GTP, 0.1-0.3 uCi α-^32P-GTP, and 2.5 pmoles (0.15 μg) HCV polymerase protein in a final volume of 75 μL. Reactions were initiated by addition of enzyme and incubated 30 minutes at 30° C. Reactions were stopped by addition of 33 mM EDTA, and polynucleotide products were collected by filtration through Diethylaminoethyl (DE) Filtermat papers (Wallac). Unincorporated triphosphate was removed by washing the filters with 5% dibasic sodium phosphate. The filters were counted in a Packard Tri-Lux Microbeta scintillation counter (Packard Bioscience, Meriden, Conn.). Compounds to be tested were added at various concentrations, e.g., 1 μm to 50 μm, from stocks in 10% DMSO-water (final DMSO is 1% in reaction).
IC50 values were estimated from the primary cpm data (collected in triplicate) using the formula: cpm (I)=cpm(no inhibitor)(1−([I]/([I]+IC50))). An IC50 value represents the concentration (in μM) of a compound that provides 50% inhibition of polymerase-directed transcription in the above assay. A percent inhibition value is expressed for a compound where it was impractical to calculate an IC50 value with available data. If the IC50 estimated by the above equation was less than 200 nM, it was recalculated using the following equation, which takes into account the enzyme concentration (30 nM) in the assay: cpm(I)=cpm(no inhibitor)(1−((((I+IC50+30e−9)−sqrt(((I+IC50+30e−9)^2)−4×30e−9×I)))/((2)(30e−9))). Curve fitting was performed using the program KaleidaGraph (Synergy Software, Reading, Pa.).
A word on the IC50: it is the point on the concentration scale where inhibition reaches its midpoint. In the case of `CC(C)Oc1ccc(CCC2(C3CCCC3)CC(=O)CC(=O)O2)cc1F` (single isomer, unassigned) [J(1), 6-cyclopentyl-6-[2-(3-fluoro-4-isopropoxyphenyl)ethyl]dihydro-2H-pyran-2,4(3H)-dione], the IC50 was 4400 nM.
Regarding `CC(C)Oc1ccc(CCC2(C3CCCC3)CC(=O)CC(=O)O2)cc1F` (single isomer, unassigned) [J(2), 6-cyclopentyl-6-[2-(3-fluoro-4-isopropoxyphenyl)ethyl]dihydro-2H-pyran-2,4(3H)-dione], the IC50 was 3900 nM.
To `Cc1cc(C)n2nc(CC3=C(O)CC(CCc4ccc(OC(C)C)c(F)c4)(C4CCCC4)OC3=O)nc2n1` (single isomer, unassigned) [J(3), 6-cyclopentyl-3-[(5,7-dimethyl[1,2,4]triazolo[1,5-a]pyrimidin-2-yl)methyl]-6-[2-(3-fluoro-4-isopropoxyphenyl)ethyl]-4-hydroxy-5,6-dihydro-2H-pyran-2-one] belongs 5 nM.
Regarding `Cc1cc(C)n2nc(CC3=C(O)CC(CCc4ccc(OC(C)C)c(F)c4)(C4CCCC4)OC3=O)nc2n1` (single isomer, unassigned) [J(4), 6-cyclopentyl-3-[(5,7-dimethyl[1,2,4]triazolo[1,5-a]pyrimidin-2-yl)methyl]-6-[2-(3-fluoro-4-isopropoxyphenyl)ethyl]-4-hydroxy-5,6-dihydro-2H-pyran-2-one], the IC50 turned out to be 19 nM.
Turning to `CCc1cccc(CCC2(C3CCCC3)CC(=O)CC(=O)O2)c1` (single isomer, unassigned) [J(5), 6-Cyclopentyl-6-[2-(3-ethyl-phenyl)-ethyl]-dihydro-pyran-2,4-dione], the IC50 turned out to be 1900 nM.
In the case of `CCc1cccc(CCC2(C3CCCC3)CC(=O)CC(=O)O2)c1` (single isomer, unassigned) [J(6), 6-Cyclopentyl-6-[2-(3-ethyl-phenyl)-ethyl]-dihydro-pyran-2,4-dione], the IC50 was 1200 nM.
The result for `CCc1cccc(CCC2(C3CCCC3)CC(O)=C(Cc3nc4nc(C)cc(C)n4n3)C(=O)O2)c1` (single isomer, unassigned) [J(7), 6-Cyclopentyl-3-(5,7-dimethyl-[1,2,4]triazolo[1,5-a]pyrimidin-2-ylmethyl)-6-[2-(3-ethyl-phenyl)-ethyl]-4-hydroxy-5,6-dihydro-pyran-2-one] reads 10 nM; that for `CCc1cccc(CCC2(C3CCCC3)CC(O)=C(Cc3nc4nc(C)cc(C)n4n3)C(=O)O2)c1` (single isomer, unassigned) [J(8), 6-Cyclopentyl-3-(5,7-dimethyl-[1,2,4]triazolo[1,5-a]pyrimidin-2-ylmethyl)-6-[2-(3-ethyl-phenyl)-ethyl]-4-hydroxy-5,6-dihydro-pyran-2-one], 14 nM; that for `Cc1cnc2nc(CC3C(=O)CC(CCc4ccc(C(C)(C)C#N)c(F)c4)(C4CCCC4)OC3=O)nn2c1` (single isomer, unassigned; (+)) [A(109), (+)-2-(4-{2-[2-Cyclopentyl-5-(6-methyl-[1,2,4]triazolo[1,5-a]pyrimidin-2-ylmethyl)-4,6-dioxo-tetrahydro-pyran-2-yl]-ethyl}-2-fluoro-phenyl)-2-methyl-propionitrile], 4 nM.
The result for `CC(C)(C#N)c1ccc(CCC2(C3CCCC3)CC(O)=C(Cc3nc4ncc(Cl)cn4n3)C(=O)O2)cc1F` (single isomer, unassigned; (+)) [A(248), (+)-2-(4-{2-[5-(6-Chloro-[1,2,4]triazolo[1,5-a]pyrimidin-2-ylmethyl)-2-cyclopentyl-4,6-dioxo-tetrahydro-pyran-2-yl]-ethyl}-2-fluoro-phenyl)-2-methyl-propionitrile] reads 16 nM; that for `CC(C)(C#N)c1c(F)cc(CCC2(C3CCCC3)CC(O)=C(Cc3nc4ncc(Cl)cn4n3)C(=O)O2)cc1F` (single isomer, unassigned; (+)) [A(259), (+)-2-(4-{2-[5-(6-Chloro-[1,2,4]triazolo[1,5-a]pyrimidin-2-ylmethyl)-2-cyclopentyl-4-hydroxy-6-oxo-3,6-dihydro-2H-pyran-2-yl]-ethyl}-2,6-difluoro-phenyl)-2-methyl-propionitrile], 6 nM; that for `CCC(C#N)(CC)c1c(F)cc(CCC2(C3CCCC3)CC(O)=C(Cc3nc4ncc(C)cn4n3)C(=O)O2)cc1F` (single isomer, unassigned; (+)) [A(263), (+)-2-(4-{2-[2-Cyclopentyl-4-hydroxy-5-(6-methyl-[1,2,4]triazolo[1,5-a]pyrimidin-2-ylmethyl)-6-oxo-3,6-dihydro-2H-pyran-2-yl]-ethyl}-2,6-difluoro-phenyl)-2-ethyl-butyronitrile], 7 nM.
To `CCC(C#N)(CC)c1ccc(CCC2(C3CCCC3)CC(O)=C(Cc3nc4ncc(Cl)cn4n3)C(=O)O2)cc1F` (single isomer, unassigned; (+)) [A(266), (+)-2-(4-{2-[5-(6-Chloro-[1,2,4]triazolo[1,5-a]pyrimidin-2-ylmethyl)-2-cyclopentyl-4-hydroxy-6-oxo-3,6-dihydro-2H-pyran-2-yl]-ethyl}-2-fluoro-phenyl)-2-ethyl-butyronitrile] belongs 19 nM.
Turning to `Cc1cnc2nc(CC3C(=O)CC(CCc4ccc(C(C)(C)C#N)c(F)c4)(C4CCCC4)OC3=O)nn2c1` (single isomer, unassigned; (-)) [A(110), (−)-2-(4-{2-[2-Cyclopentyl-5-(6-methyl-[1,2,4]triazolo[1,5-a]pyrimidin-2-ylmethyl)-4,6-dioxo-tetrahydro-pyran-2-yl]-ethyl}-2-fluoro-phenyl)-2-methyl-propionitrile], the IC50 was 1 nM.
In the case of `CCc1cc(CCC2(C3CCCC3)CC(O)=C(Cc3nc4nc(C)cc(C)n4n3)C(=O)O2)c(OC)cc1O` (single isomer, unassigned; (-)) [A(155), (−)-6-Cyclopentyl-3-(5,7-dimethyl-[1,2,4]triazolo[1,5-a]pyrimidin-2-ylmethyl)-6-[2-(5-ethyl-4-hydroxy-2-methoxy-phenyl)-ethyl]-4-hydroxy-5,6-dihydro-pyran-2-one], the IC50 is 3 nM.
`CC(C)(C#N)c1ccc(CCC2(C3CCCC3)CC(O)=C(Cc3nc4ncc(Cl)cn4n3)C(=O)O2)cc1F` (single isomer, unassigned; (-)) [A(249), (−)-2-(4-{2-[5-(6-Chloro-[1,2,4]triazolo[1,5-a]pyrimidin-2-ylmethyl)-2-cyclopentyl-4,6-dioxo-tetrahydro-pyran-2-yl]-ethyl}-2-fluoro-phenyl)-2-methyl-propionitrile]: the IC50 was determined as 19 nM.
The result for `Cc1cnc2nc(CC3=C(O)CC(CCc4cc(F)c(C(C)(C)C#N)c(F)c4)(C4CCCC4)OC3=O)nn2c1` (single isomer, unassigned; (-)) [A(258), (−)-2-(4-{2-[2-Cyclopentyl-4-hydroxy-5-(6-methyl-[1,2,4]triazolo[1,5-a]pyrimidin-2-ylmethyl)-6-oxo-3,6-dihydro-2H-pyran-2-yl]-ethyl}-2,6-difluoro-phenyl)-2-methyl-propionitrile] reads 2 nM; that for `CC(C)(C#N)c1c(F)cc(CCC2(C3CCCC3)CC(O)=C(Cc3nc4ncc(Cl)cn4n3)C(=O)O2)cc1F` (single isomer, unassigned; (-)) [A(260), (−)-2-(4-{2-[5-(6-Chloro-[1,2,4]triazolo[1,5-a]pyrimidin-2-ylmethyl)-2-cyclopentyl-4-hydroxy-6-oxo-3,6-dihydro-2H-pyran-2-yl]-ethyl}-2,6-difluoro-phenyl)-2-methyl-propionitrile], 7 nM.
The result for `CCC(C#N)(CC)c1c(F)cc(CCC2(C3CCCC3)CC(O)=C(Cc3nc4ncc(C)cn4n3)C(=O)O2)cc1F` (single isomer, unassigned; (-)) [A(264), (−)-2-(4-{2-[2-Cyclopentyl-4-hydroxy-5-(6-methyl-[1,2,4]triazolo[1,5-a]pyrimidin-2-ylmethyl)-6-oxo-3,6-dihydro-2H-pyran-2-yl]-ethyl}-2,6-difluoro-phenyl)-2-ethyl-butyronitrile] reads 4 nM; that for `CCC(C#N)(CC)c1ccc(CCC2(C3CCCC3)CC(O)=C(Cc3nc4ncc(Cl)cn4n3)C(=O)O2)cc1F` (single isomer, unassigned; (-)) [A(267), (−)-2-(4-{2-[5-(6-Chloro-[1,2,4]triazolo[1,5-a]pyrimidin-2-ylmethyl)-2-cyclopentyl-4-hydroxy-6-oxo-3,6-dihydro-2H-pyran-2-yl]-ethyl}-2-fluoro-phenyl)-2-ethyl-butyronitrile], 4 nM.
To `CCc1ccc(O)c(CCC2(C3CCCC3)CC(O)=C(Cc3nc4nc(C)cc(C)n4n3)C(=O)O2)c1` (single isomer, unassigned; enantiomer 1) [A(167), Enantiomer 1 of 6-Cyclopentyl-3-(5,7-dimethyl-[1,2,4]triazolo[1,5-a]pyrimidin-2-ylmethyl)-6-[2-(5-ethyl-2-hydroxy-phenyl)-ethyl]-4-hydroxy-5,6-dihydro-pyran-2-one] belongs 4 nM.
